# Experimental data: patent US20200276174A1, “CYCLIN-DEPENDENT KINASE INHIBITORS IN COMBINATION WITH ANTHRACYCLINES FOR TREATMENT OF CANCER” (TOLERO PHARMACEUTICALS, INC., priority 2018, published 2020)
# Values joined by “and” are separate entries in the source; they are usually repeats but may differ in a detail not shown here. Identical values can stand only once. Like-named read-outs stand apart in the source and are kept apart here.
# Columns and labels:
# [1] = statement only; prodrugs described in WO 2016/187316; cited from earlier work
# [2] = test system: AML cell lines (OCI-AML3, U937, Molm-13, MV4-11); test: 72-hour viability assay using CellTiter-Glo, single agents in AML cell lines; assay type: cell-based; conditions: for IC50: read-out: single agent IC50 values; for comparison of IC50s/activity across cell lines: single agent
# Experimental: (A) OCI-AML3, (B) U937, (C) Molm-13, and (D) MV4-11 cells were treated with alvocidib, cytarabine, or daunorubicin, as single agents, in viability assays using CellTiter-Glo according to manufacturer protocol.
# MV4-11 AML xenograft = MV4-11 AML xenograft model; assay type: in vivo, female athymic nude mice
# Experimental: Alvocidib with a cytarabine and daunorubicin regimen were tested in vivo in the MV4-11 AML xenograft model using female athymic nude mice.
# ACD (alvocidib+cytarabine+daunorubicin) is an active regimen in MV4-11 AML xenografts. (A) Tumor volume measurements show decreases following the sequential dosing of alvocidib (qdx2), cytarabine (qdx2), and daunorubicin (qdx1). This five day cycle was repeated twice. […] Doses indicated in mg/kg.
# Treatment of alvocidib (1.25 mg/kg) yielded 60.0% TGI.
# [3] = test system: MCL-1 expression in MV4-11 cells; test: MCL-1 expression during the alvocidib+cytarabine+daunorubicin regimen modeled in vitro; assay type: cell-based; conditions: alvocidib 80 nM, washed out prior to cytarabine (100 nM) addition, daunorubicin 3 nM, in sequence
# Experimental: MCL-1 expression during the alvocidib+cytarabine+daunorubicin regimen was modeled in vitro. MV4-11 cells were treated with alvocidib (80 nM), cytarabine (100 nM), or daunorubicin (3 nM), in the sequence shown. Alvocidib (or palbociclib) was washed out prior to cytarabine addition.
# previously untreated AML = conditions: for MRD− (%) / MRD−, number of patients: of all patients evaluable for response
# Experimental: The starting dose of alvocidib is 20 mg/m^2 as a 30-minute intravenous (IV) bolus followed by 30 mg/m^2 over 4 hours as an IV infusion administered daily on Days 1-3 of induction. The dose of alvocidib administered in the IV infusion is escalated in 10 mg/m^2 increments to 60 mg/m^2 to determine the maximum tolerated dose and to identify any dose limiting toxicity.
# Beginning on Day 5, cytarabine is administered as a 100 mg/m^2/day continuous IV infusion for seven consecutive days (Days 5-11) plus daunorubicin administered at a bolus dosage of 60 mg/m^2 IV on Days 5-7.
# The key eligibility criteria were: ages 18-65 years, previously untreated AML, ECOG PS 0-2, and no major organ dysfunction. Treatment consisted of increasing dose levels of alvocidib starting at 20 mg/m^2 as a 30-minute IV bolus followed by 30 mg/m^2 over 4 hours on days 1-3, cytarabine 100 mg/m^2/day by continuous IV infusion on days 5-11, followed by (e.g., followed about 30 minutes later by) daunorubicin 60 mg/m^2 IV on days 5-7. Dose escalation portion was assessed by standard 3+3 design. All patients received a day 14 bone marrow biopsy. Reinduction therapy with alvocidib (same dose as induction) days 1-3, followed by cytarabine 100 mg/m^2/day continuous IV on days 5-9, and daunorubicin 45 mg/m^2 IV days 5-6 was recommended in patients with >10% and >5% cellularity and blasts, respectively.
# [4] = 72-hour viability, CellTiter-Glo, one range printed for all three agents over OCI-AML3, U937, Molm-13, MV4-11
# [5] = Intermediate- and High-risk, evaluable for MRD status N = 9, alvocidib plus 7+3
# [6] = Intermediate- and High-risk, evaluable for response N = 10, alvocidib plus 7+3
# [7] = Intermediate- and High-risk, alvocidib plus 7+3
smiles,measurement,setting,value
CN1CC[C@H](c2c(OP(=O)(O)O)cc(O)c3c(=O)cc(-c4ccccc4Cl)oc23)[C@H](O)C1 [Structural Formula I],oral bioavailability,[1],orally bioavailable
Nc1ccn([C@@H]2O[C@H](CO)[C@@H](O)[C@@H]2O)c(=O)n1 [cytarabine],IC50,[2]; [4],2.2 to 567 nM
same,comparison of IC50s/activity across cell lines,[2]; 72-hour viability,"differing activities in Molm-13, in comparison to OCI-AML3"
same,tumor growth inhibition (TGI),MV4-11 AML xenograft; single agent cytarabine 60 mg/kg,48.5%
COc1cccc2c1C(=O)c1c(O)c3c(c(O)c1C2=O)C[C@@](O)(C(C)=O)C[C@@H]3O[C@H]1C[C@H](N)[C@H](O)[C@H](C)O1 [daunorubicin],comparison of IC50s/activity across cell lines,[2]; 72-hour viability,"differing activities in Molm-13, in comparison to OCI-AML3"
same,IC50,[2]; 72 h,2.2 to 567 nM
same,tumor growth inhibition (TGI),MV4-11 AML xenograft; single agent daunorubicin 0.5 mg/kg,21.1%
CN1CC[C@H](c2c(O)cc(O)c3c(=O)cc(-c4ccccc4Cl)oc23)[C@H](O)C1 [alvocidib],IC50,[2]; [4],2.2 to 567 nM
same,MCL-1 expression,[3],suppresses MCL-1 expression throughout the treatment regimen of cytarabine and daunorubicin
same,tumor growth inhibition (TGI),MV4-11 AML xenograft; alvocidib 1.25 mg/kg,60.0%
same,MRD− (%),"previously untreated AML; All Risks, alvocidib plus 7+3",(67) %
same,"MRD−, number of patients","previously untreated AML; All Risks, alvocidib plus 7+3",10/15
same,"MRD− Evaluable, number of patients","previously untreated AML; All Risks, patients evaluable for MRD status N = 14, alvocidib plus 7+3",10/14
same,"CR/CRi, number of patients","previously untreated AML; All Risks, patients evaluable for response N = 15, alvocidib plus 7+3, all dose levels",12/15 and 12
same,MRD− Evaluable (%),previously untreated AML; [5],(56) %
same,"MRD− Evaluable, number of patients",previously untreated AML; [5],5/9
same,CR/CRi (%),previously untreated AML; [6],(70) %
same,"CR/CRi, number of patients",previously untreated AML; [6],7
same,MRD− (%),previously untreated AML; [7],(50) %
same,"MRD−, number of patients",previously untreated AML; [7],5/10
same,"MTD, IV bolus part","previously untreated AML; human, in vivo, iv",30 mg/m^2
same,"MTD, infusion part","previously untreated AML; human, in vivo, iv",60 mg/m^2
same,MRD Status,"previously untreated AML; per patient, alvocidib dose level 20, 30 mg/m^2 (bolus, infusion) days 1-3, then 7+3",Negative
same,MRD Status,"previously untreated AML; per patient, alvocidib dose level 30, 40 mg/m^2 (bolus, infusion) days 1-3, then 7+3",Negative
same,Best Response,"previously untreated AML; per patient, alvocidib dose level 30, 60 mg/m^2 (bolus, infusion) days 1-3, then 7+3, PD = progression of disease",CRi
